Our source for the inhibition values is US20090118332A1, “Therapeutic Agents - 551” (AstraZeneca AB, priority 2006, published 2009).

This assay deals with T1, human Fatty Acid Synthase (Homo sapiens, UniProt P49327).
T1 construct: made in house
The assay can be described thus: Human FAS enzyme assay (decrease in NADPH fluorescence). The assay is classed as biochemical. The settings on record: % inhibition at a concentration of 100 μmolar. An outline of the steps: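 In-house human FAS was preincubated with compound and NADPH for 15 min at room temperature in 0.1 M Tris pH 7.5 with EDTA, glutathione and BSA. Malonyl CoA and acetyl CoA (500 μM and 150 μM in the added mix) were then added for 60 min. IC50 came from time-zero-subtracted NADPH fluorescence (340/460 nm).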

T1 sequence (P49327 whole entry): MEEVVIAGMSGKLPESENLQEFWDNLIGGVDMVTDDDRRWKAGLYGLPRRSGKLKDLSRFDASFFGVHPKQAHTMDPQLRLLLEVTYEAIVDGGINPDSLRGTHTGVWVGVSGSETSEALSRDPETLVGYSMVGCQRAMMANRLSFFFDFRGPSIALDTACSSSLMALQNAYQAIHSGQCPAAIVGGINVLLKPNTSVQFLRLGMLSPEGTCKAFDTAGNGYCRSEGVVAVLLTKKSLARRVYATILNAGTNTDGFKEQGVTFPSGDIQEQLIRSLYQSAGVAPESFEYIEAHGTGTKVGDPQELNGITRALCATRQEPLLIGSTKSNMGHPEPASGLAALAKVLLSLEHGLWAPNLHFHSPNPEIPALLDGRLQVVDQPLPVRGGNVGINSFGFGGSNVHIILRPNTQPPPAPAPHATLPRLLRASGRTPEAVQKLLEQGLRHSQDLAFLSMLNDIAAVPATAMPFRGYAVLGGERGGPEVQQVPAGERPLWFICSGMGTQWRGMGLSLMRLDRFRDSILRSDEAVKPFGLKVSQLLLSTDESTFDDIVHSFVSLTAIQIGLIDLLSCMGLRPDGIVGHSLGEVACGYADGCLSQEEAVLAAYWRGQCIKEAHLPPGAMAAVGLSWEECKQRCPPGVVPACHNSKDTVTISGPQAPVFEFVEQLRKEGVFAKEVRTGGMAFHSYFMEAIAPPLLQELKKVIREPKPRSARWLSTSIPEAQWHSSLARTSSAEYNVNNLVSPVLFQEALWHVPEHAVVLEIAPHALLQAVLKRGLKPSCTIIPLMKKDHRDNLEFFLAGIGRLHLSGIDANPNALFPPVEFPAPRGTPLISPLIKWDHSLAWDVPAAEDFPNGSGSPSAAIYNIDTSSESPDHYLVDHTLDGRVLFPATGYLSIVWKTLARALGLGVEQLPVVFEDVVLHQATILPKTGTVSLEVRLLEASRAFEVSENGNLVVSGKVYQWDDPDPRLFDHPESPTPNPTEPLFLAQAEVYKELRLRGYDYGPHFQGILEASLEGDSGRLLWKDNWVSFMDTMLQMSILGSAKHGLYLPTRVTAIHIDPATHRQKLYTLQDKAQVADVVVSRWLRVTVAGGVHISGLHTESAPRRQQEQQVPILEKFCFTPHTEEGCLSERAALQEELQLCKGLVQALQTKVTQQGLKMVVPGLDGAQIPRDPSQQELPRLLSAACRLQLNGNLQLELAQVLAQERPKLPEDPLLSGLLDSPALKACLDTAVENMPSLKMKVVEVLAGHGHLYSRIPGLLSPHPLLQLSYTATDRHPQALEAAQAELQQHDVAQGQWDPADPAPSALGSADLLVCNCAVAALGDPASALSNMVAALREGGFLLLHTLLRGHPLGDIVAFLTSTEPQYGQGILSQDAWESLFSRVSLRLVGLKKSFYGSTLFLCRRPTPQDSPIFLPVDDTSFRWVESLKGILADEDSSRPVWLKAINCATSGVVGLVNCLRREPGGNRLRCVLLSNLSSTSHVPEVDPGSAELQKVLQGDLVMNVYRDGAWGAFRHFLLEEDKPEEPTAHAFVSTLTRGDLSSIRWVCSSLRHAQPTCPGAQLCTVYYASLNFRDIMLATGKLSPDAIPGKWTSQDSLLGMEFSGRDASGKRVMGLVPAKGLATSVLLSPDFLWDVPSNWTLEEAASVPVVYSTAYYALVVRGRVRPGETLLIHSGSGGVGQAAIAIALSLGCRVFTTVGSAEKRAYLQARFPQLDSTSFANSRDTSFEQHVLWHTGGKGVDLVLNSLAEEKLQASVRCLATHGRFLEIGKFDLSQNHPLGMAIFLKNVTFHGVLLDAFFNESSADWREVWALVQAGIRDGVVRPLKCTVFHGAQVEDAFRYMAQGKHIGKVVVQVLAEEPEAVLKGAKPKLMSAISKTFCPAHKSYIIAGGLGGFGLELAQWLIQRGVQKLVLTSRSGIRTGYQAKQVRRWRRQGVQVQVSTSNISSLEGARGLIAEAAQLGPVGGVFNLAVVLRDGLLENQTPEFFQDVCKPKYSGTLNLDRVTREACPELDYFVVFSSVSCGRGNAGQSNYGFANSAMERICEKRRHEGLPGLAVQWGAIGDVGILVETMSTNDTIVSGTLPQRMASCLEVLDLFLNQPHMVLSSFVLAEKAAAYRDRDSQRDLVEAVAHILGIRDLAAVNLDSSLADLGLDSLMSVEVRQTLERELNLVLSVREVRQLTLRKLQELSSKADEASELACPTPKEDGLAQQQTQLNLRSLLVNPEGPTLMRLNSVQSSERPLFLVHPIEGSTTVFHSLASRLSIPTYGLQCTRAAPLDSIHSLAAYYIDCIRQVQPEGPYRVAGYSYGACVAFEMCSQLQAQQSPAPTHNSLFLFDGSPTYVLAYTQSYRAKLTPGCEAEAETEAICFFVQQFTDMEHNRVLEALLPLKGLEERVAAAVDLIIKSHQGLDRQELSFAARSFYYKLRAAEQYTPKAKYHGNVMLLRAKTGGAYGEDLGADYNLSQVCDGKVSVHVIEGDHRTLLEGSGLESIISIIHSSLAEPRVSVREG

As for `CCCN1CCC(NC(=O)Nc2cc(C(=O)N3CCC(c4ccc(C#N)cc4)CC3)ccc2C)CC1` [Example 79, 3-[5-[4-(4-cyanophenyl)piperidine-1-carbonyl]-2-methyl-phenyl]-1-(1-propyl-4-piperidyl)urea], the inhibition (commonly the change of the read-out against control, counted positive when it falls) at 100 µM came to 95.4%.
For `Cc1ccc(C(=O)N2CCC(c3ccc(C#N)cc3)CC2)cc1NC(=O)NCC1CCS(=O)(=O)C1` (centres unmarked) [Example 80, 1-[5-[4-(4-cyanophenyl)piperidine-1-carbonyl]-2-methyl-phenyl]-3-[(1,1-dioxothiolan-3-yl)methyl]urea], the inhibition at 100 µM was 96.1%.
For `Cc1ccc(C(=O)N2CCC(c3ccc(C#N)cc3)CC2)cc1NC(=O)NCCNC(=O)OCc1ccccc1` [Example 81, Benzyl N-[2-[[5-[4-(4-cyanophenyl)piperidine-1-carbonyl]-2-methyl-phenyl]carbamoylamino]ethyl]carbamate] the value was 88.2%.
For `Cc1ccc(C(=O)N2CCC(c3ccc(C#N)cc3)CC2)cc1NC(=O)NCc1nnn[nH]1` [Example 82, 1-[5-[4-(4-cyanophenyl)piperidine-1-carbonyl]-2-methyl-phenyl]-3-(1H-tetrazol-5-ylmethyl)urea] the value was 82%; for `COc1ccccc1OCCNC(=O)Nc1cc(C(=O)N2CCC(c3ccc(C#N)cc3)CC2)ccc1C` [Example 83, 1-[5-[4-(4-cyanophenyl)piperidine-1-carbonyl]-2-methyl-phenyl]-3-[2-(2-methoxyphenoxy)ethyl]urea], 102%.
For `COc1ccc([C@@H](C)NC(=O)Nc2cc(C(=O)N3CCC(c4ccc(C#N)cc4)CC3)ccc2C)cc1` [Example 84, 1-[5-[4-(4-cyanophenyl)piperidine-1-carbonyl]-2-methyl-phenyl]-3-[(1R)-1-(4-methoxyphenyl)ethyl]urea] the value was 92.3%; for `Cc1ccc(C(=O)N2CCC(c3ccc(C#N)cc3)CC2)cc1NC(=O)NCc1cccc(N)c1` [Example 85, 3-[(3-aminophenyl)methyl]-1-[5-[4-(4-cyanophenyl)piperidine-1-carbonyl]-2-methyl-phenyl]urea], 93.6%.
Regarding `Cc1ccc(C(=O)N2CCC(c3ccc(C#N)cc3)CC2)cc1NC(=O)NCCNS(=O)(=O)c1ccccc1` [Example 86, 3-[2-(benzenesulfonamido)ethyl]-1-[5-[4-(4-cyanophenyl)piperidine-1-carbonyl]-2-methyl-phenyl]urea], the inhibition at 100 µM worked out at 94%.
As for `Cc1ccc(C(=O)N2CCC(c3ccc(C#N)cc3)CC2)cc1NC(=O)NCCNc1ccc([N+](=O)[O-])cc1` [Example 87, 1-[5-[4-(4-cyanophenyl)piperidine-1-carbonyl]-2-methyl-phenyl]-3-[2-[(4-nitrophenyl)amino]ethyl]urea], the inhibition at 100 µM was 92.5%.
For `Cc1ccc(C(=O)N2CCC(c3ccc(C#N)cc3)CC2)cc1NC(=O)NC(C)c1ccc(F)cc1` (centres unmarked) [Example 88, 1-[5-[4-(4-cyanophenyl)piperidine-1-carbonyl]-2-methyl-phenyl]-3-[1-(4-fluorophenyl)ethyl]urea] the value was 87.6%.
For `Cc1ccc(C(=O)N2CCC(c3ccc(C#N)cc3)CC2)cc1NC(=O)NCc1ccoc1` [Example 89, 1-[5-[4-(4-cyanophenyl)piperidine-1-carbonyl]-2-methyl-phenyl]-3-(3-furylmethyl)urea] the value was 93.1%; for `Cc1ccc(C(=O)N2CCC(c3ccc(C#N)cc3)CC2)cc1NC(=O)NCCO` [Example 90, 1-[5-[4-(4-cyanophenyl)piperidine-1-carbonyl]-2-methyl-phenyl]-3-(2-hydroxyethyl)urea], 93.6%; for `Cc1ccc(C(=O)N2CCC(c3ccc(C#N)cc3)CC2)cc1NC(=O)NCCNC(=O)c1ccccn1` [Example 91, N-[2-[[5-[4-(4-cyanophenyl)piperidine-1-carbonyl]-2-methyl-phenyl]carbamoylamino]ethyl]pyridine-2-carboxamide], 95.9%.
For `Cc1ccc(C(=O)N2CCC(c3ccc(C#N)cc3)CC2)cc1NC(=O)NCCNS(=O)(=O)N(C)C` [Example 92, 1-[5-[4-(4-cyanophenyl)piperidine-1-carbonyl]-2-methyl-phenyl]-3-[2-(dimethylsulfamoylamino)ethyl]urea] the value was 102%; for `Cc1ccc(C(=O)N2CCC(c3ccc(C#N)cc3)CC2)cc1NC(=O)NC(C)(C)CNC(=O)c1cccnc1` [Example 93, N-[2-[[5-[4-(4-cyanophenyl)piperidine-1-carbonyl]-2-methyl-phenyl]carbamoylamino]-2-methyl-propyl]pyridine-3-carboxamide], 90.1%.
`Cc1ccc(C(=O)N2CCC(c3ccc(C#N)cc3)CC2)cc1NC(=O)NCCNc1nc(N)nc(C)c1C` [Example 94, 3-[2-[(2-amino-5,6-dimethyl-pyrimidin-4-yl)amino]ethyl]-1-[5-[4-(4-cyanophenyl)piperidine-1-carbonyl]-2-methyl-phenyl]urea]: the inhibition at 100 µM came to 89.6%.
For `Cc1ccc(C(=O)N2CCC(c3ccc(C#N)cc3)CC2)cc1NC(=O)NCCNc1ncnc2[nH]cnc12` [Example 95, 1-[5-[4-(4-cyanophenyl)piperidine-1-carbonyl]-2-methyl-phenyl]-3-[2-(9H-purin-6-ylamino)ethyl]urea] the value was 94.4%; for `CC(C)=CCNC(=O)Nc1cc(C(=O)N2CCC(c3ccc(C#N)cc3)CC2)ccc1C` [Example 96, 1-[5-[4-(4-cyanophenyl)piperidine-1-carbonyl]-2-methyl-phenyl]-3-(3-methylbut-2-enyl)urea], 103%.
Take `Cc1ccc(C(=O)N2CCC(c3ccc(C#N)cc3)CC2)cc1NC(=O)NC1CN(C(=O)OC(C)(C)C)C1` [Example 97, tert-butyl 3-[[5-[4-(4-cyanophenyl)piperidine-1-carbonyl]-2-methyl-phenyl]carbamoylamino]azetidine-1-carboxylate]: the inhibition at 100 µM was determined as 95.5%.
For `Cc1ccc(C(=O)N2CCC(c3ccc(C#N)cc3)CC2)cc1NC(=O)NC(C)c1ccc(S(C)(=O)=O)cc1` (centres unmarked) [Example 98, 1-[5-[4-(4-cyanophenyl)piperidine-1-carbonyl]-2-methyl-phenyl]-3-[1-(4-methylsulfonylphenyl)ethyl]urea], the inhibition at 100 µM came out at 91.9%.
The result for `Cc1ccc(C(=O)N2CCC(c3ccc(C#N)cc3)CC2)cc1NC(=O)NC1Cc2ccncc2NC1=O` (centres unmarked) [Example 99, 1-[5-[4-(4-cyanophenyl)piperidine-1-carbonyl]-2-methyl-phenyl]-3-(2-oxo-3,4-dihydro-1H-1,7-naphthyridin-3-yl)urea] reads 90.2%; that for `Cc1ccc(C(=O)N2CCC(c3ccc(C#N)cc3)CC2)cc1NC(=O)NCCCN1CCCC(C)C1` (centres unmarked) [Example 100, 1-[5-[4-(4-cyanophenyl)piperidine-1-carbonyl]-2-methyl-phenyl]-3-[3-(3-methyl-1-piperidyl)propyl]urea], 77.8%.
As to `COc1ccc(NCCNC(=O)Nc2cc(C(=O)N3CCC(c4ccc(C#N)cc4)CC3)ccc2C)cc1` [Example 101, 1-[5-[4-(4-cyanophenyl)piperidine-1-carbonyl]-2-methyl-phenyl]-3-[2-[(4-methoxyphenyl)amino]ethyl]urea], the inhibition at 100 µM came out at 90.7%.
